Data: patent publication US20250197407A1 (Jazz Pharmaceuticals Ireland Limited, priority 2022, published 2025)

Biological target: SOS1/KRAS WT (Homo sapiens (Human), UniProt Q07889)
Assay: SOS1/KRAS WT HTRF binding assay (FRET-based protein-protein interaction)
Details: inhibition of His6-SOS1 (aa564-1049, 40 nM) binding to GST-KRAS-WT (aa1-188, 40 nM); at least two independent replicates; read-out: SOS1/KRAS WT HTRF Binding assay pIC50 (converted)
From the text: The capacity of compounds to inhibit SOS1 binding to KRAS-WT (wild-type) was quantified using a FRET-based protein-protein interaction assay. The assay is based on the transfer of energy between two fluorophores, a donor and an acceptor, when in close proximity. In this instance, the donor is a Europium-conjugated α-GST antibody that binds to GST-tagged KRAS-WT, and the acceptor is an XL665-conjugated α-His 6 antibody that binds to His 6-tagged SOS1. Binding of SOS1 to KRAS-WT results in an increased fluorescent signal at emission wavelength of 665 nm which can be detected on the EnVision plate reader. Compounds that inhibit binding will reduce the 665 nm signal emitted. Recombinant KRAS-WT protein (40 nM; Human KRAS, aa1-188 recombinant protein with N-terminal GST-tag) and SOS1 protein (40 nM; Human SOS1 exchange domain, aa564-1049 with N-terminal 6His-tag) were mixed together in assay buffer (5 mM HEPES pH7.3, 150 mM NaCl, 10 mM EDTA, 5 mM MgCl2, 0.05% BSA, 0.0025% NP-40, 1 mM DTT and 100 mM KF) and incubated at room temperature with a dose response of compound in a 384-well low volume white plate and a final volume of 5 ul. After a 60 minute incubation, 5 ul of 4 nM anti-GST-Eu(K) (Cisbio, France) combined with 20 nM anti-6His-XL665 (Cisbio, France), diluted in assay buffer, was added to the plate. Following a further 4 hr incubation at room temperature, time-resolved fluorescence was measured on the EnVision plate reader. DMSO (0.05%) and 10 μM reference compound were used to generate the Max and Min assay signals, respectively. Data was analysed using a four-parameter logistic model to calculate IC50 values, with at least two independent replicates performed for each compound.
Data was analyzed using a four-parameter logistic model to calculate IC50 values, with at least two independent replicates performed for each compound.

Chain of SOS1/KRAS WT (Q07889 564-1049): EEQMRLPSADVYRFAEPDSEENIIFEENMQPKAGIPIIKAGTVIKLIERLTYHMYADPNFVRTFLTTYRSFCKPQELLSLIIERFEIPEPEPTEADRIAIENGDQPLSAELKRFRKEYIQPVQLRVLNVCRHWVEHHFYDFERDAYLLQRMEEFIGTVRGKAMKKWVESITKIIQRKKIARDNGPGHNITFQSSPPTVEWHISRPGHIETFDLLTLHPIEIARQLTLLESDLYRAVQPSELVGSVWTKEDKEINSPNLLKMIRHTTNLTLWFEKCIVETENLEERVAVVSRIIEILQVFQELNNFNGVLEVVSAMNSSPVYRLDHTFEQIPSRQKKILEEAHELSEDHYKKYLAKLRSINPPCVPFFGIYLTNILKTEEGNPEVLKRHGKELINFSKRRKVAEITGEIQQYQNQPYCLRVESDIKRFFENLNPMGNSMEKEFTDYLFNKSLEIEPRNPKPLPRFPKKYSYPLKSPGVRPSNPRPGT

IC50 | SMILES
10 nM | CCC1(OC)C(=O)N(C)c2cc3c(N[C@H](C)c4cccc(C(F)(F)C(C)(C)O)c4F)nnc(C)c3cc21 (stereo partly drawn) [Compound 204, 3-ethyl-3-methoxy-1,5-dimethyl-8-[[(1R)-1-[3-(1,1-difluoro-2-hydroxy-2-methyl-propyl)-2-fluoro-phenyl]ethyl]amino]pyrrolo[2,3-g]phthalazin-2-one]
8.51 nM | Cc1nnc(N[C@H](C)c2cccc(C(F)(F)C(C)(C)O)c2)c2cc3c(cc12)C(C)(C)C(=O)N3C(C)C [Compound 81, 1-isopropyl-3,3,5-trimethyl-8-[[(1R)-1-[3-(1,1-difluoro-2-hydroxy-2-methyl-propyl)phenyl]ethyl]amino]pyrrol o[2,3-g]phthalazin-2-one]
9.77 nM | COC1(C)C(=O)N(C)c2cc3c(N[C@H](C)c4cccc(C(F)(F)CO)c4C)nnc(C)c3cc21 (stereo partly shown) [Compound 92]
9.55 nM | COC1(C)C(=O)N(C2CC2)c2cc3c(N[C@H](C)c4cccc(C(F)(F)C(C)(C)O)c4)nnc(C)c3cc21 (stereo partly drawn) [Compound 117, 1-cyclopropyl-3-methoxy-3,5-dimethyl-8-[[(1R)-1-[3-(1,1-difluoro-2-hydroxy-2-methyl-propyl)phenyl]ethyl]amino]pyrrolo [2,3-g]phthalazin-2-one]
7.59 nM | Cc1nnc(N[C@H](C)c2cccc(C(F)(F)CO)c2)c2cc3c(cc12)n(C)c(=O)n3C(C)C [Compound 14, 3-isopropyl-1,8-dimethyl-5-[[(1R)-1-[3-(1,1-difluoro-2-hydroxy-ethyl)phenyl]ethyl]amino]imidazo [4,5-g]phthalazin-2-one]
7.59 nM | Cc1nnc(N[C@H](C)c2cccc(C(F)(F)F)c2F)c2cc3c(cc12)n(C)c(=O)n3C(C)C [Compound 38, 3-isopropyl-1,8-dimethyl-5-[[(1R)-1-[2-fluoro-3-(trifluoromethyl)phenyl]ethyl]amino] imidazo[4,5-g]phthalazin-2-one]
11.7 nM | CCC1(OC)C(=O)N(C)c2cc3c(N[C@H](C)c4cccc(C(F)(F)CO)c4C)nnc(C)c3cc21 (stereo partly drawn) [Compound 203, 3-ethyl-3-methoxy-1,5-dimethyl-8-[[(1R)-1-[3-(1,1-difluoro-2-hydroxy-ethyl)-2-methyl-phenyl]ethyl]amino]pyrrolo[2,3-g]phthalazin-2-one]
11.2 nM | Cc1nnc(N[C@H](C)c2cccc(C(F)(F)C(C)(C)O)c2F)c2cc3c(cc12)n(C)c(=O)n3C [Compound 16, 1,3,8-trimethyl-5-[[(1R)-1-[3-(1,1-difluoro-2-hydroxy-2-methyl-propyl)-2-fluoro-phenyl]ethyl]amino]imidazo[4,5-g]phthalazin-2-one]
12 nM | Cc1nnc(N[C@H](C)c2cccc(C(F)(F)F)c2)c2cc3c(cc12)n(C)c(=O)n3CC(F)(F)F [Compound 11, 1,8-dimethyl-5-[[(1R)-1-[3-(trifluoromethyl)phenyl]ethyl]amino]-3-(2,2,2-trifluoroethyl)imidazo[4,5-g]phthalazin-2-one]
6.61 nM | COCC1(C)C(=O)N(C2CC2)c2cc3c(N[C@H](C)c4cccc(C(F)(F)CO)c4F)nnc(C)c3cc21 (stereo partly drawn) [Compound 138, 1-cyclopropyl-8-[[(1R)-1-[3-(1,1-difluoro-2-hydroxy-ethyl)-2-fluoro-phenyl]ethyl]amino]-3-(methoxymethyl)-3,5-dimethyl-pyrrolo[3,2-g]phthalazin-2-one]
13.2 nM | Cc1c([C@@H](C)Nc2nnc(C)c3cc4c(cc23)n(C2CC2)c(=O)n4C)cccc1C(F)(F)C(C)(C)O [Compound 210, 3-cyclopropyl-5-[[(1R)-1-[3-(1,1-difluoro-2-hydroxy-2-methyl-propyl)-2-methyl-phenyl]ethyl]amino]-1,8-dimethyl-imidazo[4,5-g]phthalazin-2-one]
8.91 nM | COCC1(C)C(=O)N(C)c2cc3c(N[C@H](C)c4cccc(C(F)(F)CO)c4F)nnc(C)c3cc21 (stereo partly drawn) [Compound 94, 8-[[(1R)-1-[3-(1,1-difluoro-2-hydroxy-ethyl)-2-fluoro-phenyl]ethyl]amino]-3-(methoxymethyl)-1,3,5-trimethyl-pyrrolo[3,2-g]phthalazin-2-one]
6.61 nM | Cc1nnc(N[C@H](C)c2cccc(C(F)(F)CO)c2F)c2cc3c(cc12)N(C)C(=O)C31CCOCC1 [Compound 116, 1,8-dimethyl-5-[[(1R)-1-[3-(1,1-difluoro-2-hydroxy-ethyl)-2-fluoro-phenyl]ethyl]amino]spiro[pyrrolo [3,2-g]phthalazine-3,4′-tetrahydropyran]-2-one]
8.91 nM | CCN1C(=O)C(C)(OC)c2cc3c(C)nnc(N[C@H](C)c4cccc(C(F)(F)CO)c4C)c3cc21 (stereo partly drawn) [Compound 168, 1-ethyl-3-methoxy-3,5-dimethyl-8-[[(1R)-1-[3-(1,1-difluoro-2-hydroxy-ethyl)-2-methyl-phenyl]ethyl]amino]pyrrolo[2,3-g]phthalazin-2-one]
7.41 nM | Cc1nnc(N[C@H](C)c2cccc(C(F)(F)CO)c2)c2cc3c(cc12)N(C)C(=O)C3(C)C [Compound 95, 1,3,3,8-tetramethyl-5-[[(1R)-1-[3-(1,1-difluoro-2-hydroxy-ethyl)phenyl]ethyl]amino]pyrrolo [3,2-g]phthalazin-2-one]

Continued, compound first:

SMILES | IC50
CCOC1(C)C(=O)N(C)c2cc3c(N[C@H](C)c4cccc(C(F)(F)CO)c4)nnc(C)c3cc21 (stereo partly drawn) [Compound 133, 3-ethoxy-1,3,5-trimethyl-8-[[(1R)-1-[3-(1,1-difluoro-2-hydroxy-ethyl)phenyl]ethyl]amino]pyrrolo [2,3-g]phthalazin-2-one] | 8.51 nM
CCOC1(C)C(=O)N(C2CC2)c2cc3c(N[C@H](C)c4cccc(C(F)(F)C(C)(C)O)c4C)nnc(C)c3cc21 (stereo partly drawn) [Compound 166, 1-cyclopropyl-3-ethoxy-3,5-dimethyl-8-[[(1R)-1-[3-(1,1-difluoro-2-hydroxy-2-methyl-propyl)-2-methyl-phenyl]ethyl]amino]pyrrolo[2,3-g]phthalazin-2-one] | 14.8 nM
COCC1(C)C(=O)N(C2CC2)c2cc3c(N[C@H](C)c4cccc(C(F)(F)C(C)(C)O)c4F)nnc(C)c3cc21 (stereo partly drawn) [Compound 136, 1-cyclopropyl-8-[[(1R)-1-[3-(1,1-difluoro-2-hydroxy-2-methyl-propyl)-2-fluoro-phenyl]ethyl]amino]-3-(methoxymethyl)-3,5-dimethyl-pyrrolo[3,2-g]phthalazin-2-one] | 14.1 nM
Cc1nnc(N[C@H](C)c2cccc(C(F)(F)CO)c2F)c2cc3c(cc12)n(C)c(=O)n3C1CCC1 [Compound 21, 3-cyclobutyl-1,8-dimethyl-5-[[(1R)-1-[3-(1,1-difluoro-2-hydroxy-ethyl)-2-fluoro-phenyl]ethyl]amino]imidazo[4,5-g]phthalazin-2-one] | 9.77 nM
Cc1nnc(N[C@H](C)c2cccc(C(F)F)c2F)c2cc3c(cc12)OC(C)(C)C(=O)N3C [Compound 30, 2,2,4,9-tetramethyl-6-[[(1R)-1-[3-(difluoromethyl)-2-fluoro-phenyl]ethyl]amino]pyridazino[4,5-g][1,4]benzoxazin-3-one] | 14.8 nM
Cc1nnc(N[C@H](C)c2cc(F)cc(C(F)(F)CO)c2)c2cc3c(cc12)C(C)(C)C(=O)N3C [Compound 107, 1,3,3,5-tetramethyl-8-[[(1R)-1-[3-(1,1-difluoro-2-hydroxy-ethyl)-5-fluoro-phenyl]ethyl]amino]pyrrolo[2,3-g]phthalazin-2-one] | 18.6 nM
COC1(C)C(=O)N(C)c2cc3c(N[C@H](C)c4cccc(C(F)(F)CO)c4)nnc(C)c3cc21 (stereo partly drawn) [Compound 101, 3-methoxy-1,3,5-trimethyl-8-[[(1R)-1-[3-(1,1-difluoro-2-hydroxy-ethyl)phenyl]ethyl]amino]pyrrolo [2,3-g]phthalazin-2-one] | 10 nM
COC1(C)C(=O)N(C)c2cc3c(N[C@H](C)c4cc(C)cc(C(F)(F)CO)c4C)nnc(C)c3cc21 (stereo partly drawn) [Compound 182, 3-methoxy-1,3,5-trimethyl-8-[[(1R)-1-[3-(1,1-difluoro-2-hydroxy-ethyl)-2,5-dimethyl-phenyl]ethyl]amino]pyrrolo[2,3-g]phthalazin-2-one] | 9.77 nM
Cc1nnc(N[C@H](C)c2cccc(C(F)(F)F)c2)c2cc3c(cc12)n(C1CC1)c(=O)n3C [Compound 56, 1-cyclopropyl-3,8-dimethyl-5-[[(1R)-1-[3-(trifluoromethyl)phenyl]ethyl]amino] imidazo[4,5-g]phthalazin-2-one] | 11.5 nM
Cc1nnc(N[C@H](C)c2cccc(C(F)(F)F)c2)c2cc3c(cc12)n(C)c(=O)n3C1CCCC1 [Compound 2, 3-cyclopentyl-1,8-dimethyl-5-[[(1R)-1-[3-(trifluoromethyl)phenyl]ethyl]amino] imidazo[4,5-g]phthalazin-2-one] | 13.2 nM
